Data taken from patent publication US11306102B2, “1,3-di-substituted ketene compound and application thereof” (BEBETTER MED INC., priority 2017, dated 2022).

What follows are compounds tested against T1, PPARα (Homo sapiens, UniProt Q07869) (assay: Hela cell/luciferase reporter gene method, PPARα agonist activity). Conditions: Hela cells, pPPRE3-TK-Luciferase reporter, 24 hrs incubation; read-out: agonistic activity on PPAα (EC50).
T1 construct: expressed in transfected cells; host or cells: Hela cells
T1 sequence (Q07869 1-468): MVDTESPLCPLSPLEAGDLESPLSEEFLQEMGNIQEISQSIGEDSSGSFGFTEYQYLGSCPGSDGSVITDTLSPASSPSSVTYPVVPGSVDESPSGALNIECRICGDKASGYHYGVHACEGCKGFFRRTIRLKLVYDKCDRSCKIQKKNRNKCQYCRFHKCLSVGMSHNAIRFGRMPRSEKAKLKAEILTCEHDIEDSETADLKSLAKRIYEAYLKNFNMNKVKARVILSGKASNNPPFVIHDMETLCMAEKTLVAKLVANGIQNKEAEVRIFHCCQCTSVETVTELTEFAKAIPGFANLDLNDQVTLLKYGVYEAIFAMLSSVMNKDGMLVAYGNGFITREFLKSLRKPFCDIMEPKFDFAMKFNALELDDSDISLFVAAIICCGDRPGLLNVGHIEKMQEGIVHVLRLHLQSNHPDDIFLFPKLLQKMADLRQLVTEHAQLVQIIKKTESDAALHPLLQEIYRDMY
Format: cell-based
Method: (§1) This example measures the biological activity of a PPAR agonist using the Hela cell/luciferase reporter gene method.
(§2) The target plasmids PCMV PPARα (Ampicillin+), PCMV PPARγ (Ampicillin+), PCMV PPARδ (Ampicillin+), and pPPRE3-TK-Luciferase (Ampicillin+) were introduced into DH5a competent cells by heat shock treatment, respectively. After being incubated for 1 hour at 37° C. with shaking (180 rpm), the cells were inoculated on LB agar solid medium containing antibiotic Ampicillin, and invertedly cultured at 37° C. for 12-16 hours. Then the monoclonal colony cultured on the medium was taken and inoculated into LB liquid medium for expanded culture. The desired plasmid was extracted from the resulting bacterial solution with a Plasmid Midi Kit (Qiagen; #12143). The plasmid obtained by centrifugation was suspended in TE buffer, and the plasmid concentration was measured and the mixture was stored at −20° C. Hela cells in the exponential phase were seeded in 6-well plates (8-10^5 cells/well), and after 6-8 hours of culture, the cells were transfected using Lipofectamine® 3000 Transfection Reagent (Invitrogen; #L3000015). A plasmid containing a PPAR binding site (peroxisome proliferator response element, PPRE) and a firefly luciferase gene (pPPRE3-TK-Luciferase) and PPAR expression vector were co-transfected into a Hela cell with a total amount of plasmid DNA of 2.5 ug (the mass ratio of each PPAR expression vector is pPPRE:PPARα=6:1, pPPRE:PPARδ=8:1, and pPPRE:PPARγ=2:1) to construct a drug screening cell model for PPAR agonists. PPAR was binded to the ligand and then binded to the peroxisome proliferator response element (PPRE), thereby initiating downstream firefly luciferase expression and its expression intensity was directly proportional to the degree of PPAR activation. The cells after 24 hours transfection were prepared into a cell suspension with a cell concentration of […] by a complete culture solution, and seeded into a 96-well plate with 100 ul per well. After overnight culture, the medium was changed to a medium containing 1% FBS. 10 mM candidate compound stock (1000×) were 4-fold diluted in DMSO for 8 points, then supplemented with medium containing 1% FBS to a final concentration of 50 uM (5×) by addition of 25 μl of 5× compound diluent to each well in different concentration gradients and incubated under 37° C., 5% CO2 incubator for 24 hrs. The 96-well plate was taken out and 30 μl of Bright-Glo™ Luciferase Assay System (Promega #E2620) was added to each well. The Luciferase luminescence intensity was measured by a SynergyH1 full-function microplate detector. The obtained data was used to calculate EC50 using GraphPad Prism 5.0 software to determine the biological activity of the compound.
(§3) The agonistic activity of the compounds synthesized in Examples 1-41 on PPAR is represented by EC50 (see Table 1). EC50 refers to the drug concentration at which the compound has a 50% increase in the agonistic activity of the measured PPAR. The compound numbers in Table 1 correspond to the compound numbers in Examples 1-41.

Compound | EC50 [nM]
CSc1ccc(C(=O)/C=C/c2ccc(OC(C)(C)C(=O)O)cc2)c2occc12 [Compound 12, (E)-2-methyl-2-(4-(3-(4-(methylthio)benzofuran-7-yl)-3-oxoprop-1-en-1-yl)phenoxy)propanoic acid] | 99.8
CSc1ccc2c(C(F)(F)F)c(C(=O)/C=C/c3cc(C)c(OC(C)(C)C(=O)O)c(C)c3)oc2c1 [Compound 73, (E)-2-(2,6-dimethyl-4-(3-(6-(methylthio)-3-(trifluoromethyl)benzofuran-2-yl)-3-oxoprop-1-en-1-yl)phenoxy)-2-methylpropanoic acid] | 3.8
CSc1ccc2cc(C(=O)/C=C/c3cc(C)c(OCC(=O)O)c(C)c3)oc2c1 [Compound 57, (E)-2-(2,6-dimethyl-4-(3-(6-(methylthio)benzofuran-2-yl)-3-oxoprop-1-en-1-yl)phenoxy)acetic acid] | 1180
Cc1cc(/C=C/C(=O)c2ccc(SCC(C)C)c3ccoc23)cc(C)c1OC(C)(C)C(=O)O [Compound 9, (E)-2-(4-(3-(4-(isobutylthio)benzofuran-7-yl)-3-oxoprop-1-en-1-yl)-2,6-dimethylphenoxy)-2-methylpropanoic acid] | 46.8
Cc1cc(/C=C/C(=O)c2ccc3scnc3c2)cc(C)c1OC(C)(C)C(=O)O [Compound 39, (E)-2-(4-(3-(benzo[d]thiazol-5-yl)-3-oxoprop-1-en-1-yl)-2,6-dimethylphenoxy)-2-methylpropanoic acid] | 366
CCOc1ccc2cc(C(=O)/C=C/c3cc(C)c(OC(C)(C)C(=O)O)c(C)c3)oc2c1 [Compound 44, (E)-2-(4-(3-(6-ethoxylbenzofuran-2-yl)-3-oxoprop-1-en-1-yl)-2,6-dimethylphenoxy)-2-methylpropanoic acid] | 7.67
CSc1ccc(C(=O)/C=C/c2cc(C)c(OC(C)(C)C(=O)O)c(C)c2)c2oc(C)nc12 [Compound 20, (E)-2-(2,6-dimethyl-4-(3-(2-methyl-4-(methylthio)benzo[d]oxazol-7-yl)-3-oxoprop-1-en-1-yl)phenoxy)-2-methylpropanoic acid] | 165
CSc1cccc2cc(C(=O)/C=C/c3cc(C)c(OC(C)(C)C(=O)O)c(C)c3)oc12 [Compound 58, (E)-2-(2,6-dimethyl-4-(3-(7-(methylthio)benzofuran-2-yl)-3-oxoprop-1-en-1-yl)phenoxy)-2-methylpropanoic acid] | 352
CSc1ccc2c(C(C)C)c(C(=O)/C=C/c3cc(C)c(OC(C)(C)C(=O)O)c(C)c3)oc2c1 [Compound 64, (E)-2-(4-(3-(3-isopropyl-6-(methylthio)benzofuran-2-yl)-3-oxoprop-1-en-1-yl)-2,6-dimethylphenoxy)-2-methylpropanoic acid] | 105
CCCSc1ccc2c(C)c(C(=O)/C=C/c3cc(C)c(OC(C)(C)C(=O)O)c(C)c3)oc2c1 [Compound 75, (E)-2-(2,6-dimethyl-4-(3-(3-methyl-6-(propylthio)benzofuran-2-yl)-3-oxoprop-1-en-1-yl)phenoxy)-2-methylpropanoic acid] | 121
Cc1cc(/C=C/C(=O)c2cc3ccccc3o2)cc(C)c1OC(C)(C)C(=O)O [Compound 49, (E)-2-(4-(3-(benzofuran-2-yl)-3-oxoprop-1-en-1-yl)-2,6-dimethylphenoxy)-2-methylpropanoic acid] | 874
CNc1ccc(C(=O)/C=C/c2cc(C)c(OC(C)(C)C(=O)O)c(C)c2)c2occc12 [Compound 2, (E)-2-(2,6-dimethyl-4-(3-(4-(methylamino)benzofuran-7-yl)-3-oxoprop-1-en-1-yl)phenoxy)-2-methylpropanoic acid] | 948

Other lines, results leading:

EC50 [nM] | Compound
382 | CSc1ccc2c(C)c(C(=O)/C=C/c3cc(C(C)C)c(OC(C)(C)C(=O)O)c(C(C)C)c3)oc2c1 [Compound 104, (E)-2-(2,6-diisopropyl-4-(3-(3-methyl-6-(methylthio)benzofuran-2-yl)-3-oxoprop-1-en-1-yl)phenoxy)-2-methylpropanoic acid]
70.2 | CSc1ccc2c(C)c(C(=O)/C=C/c3cc(C)c(OC(C)(C)C(=O)O)c(C)c3)sc2c1 [Compound 82, (E)-2-(2,6-dimethyl-4-(3-(3-methyl-6-(methylthio)benzo[b]thiophen-2-yl)-3-oxoprop-1-en-1-yl)phenoxy)-2-methylpropanoic acid]
41.9 | CCSc1ccc2c(C)c(C(=O)/C=C/c3cc(C)c(OC(C)(C)C(=O)O)c(C)c3)sc2c1 [Compound 94, (E)-2-(4-(3-(6-(ethylthio)-3-methylbenzo[b]thiophen-2-yl)-3-oxoprop-1-en-1-yl)-2,6-dimethylphenoxy)-2-methylpropanoic acid]
52.1 | COc1cc(/C=C/C(=O)c2cc3ccc(SC)cc3o2)cc(OC)c1OC(C)(C)C(=O)O [Compound 99, (E)-2-(2,6-dimethoxy-4-(3-(6-(methylthio)benzofuran-2-yl)-3-oxoprop-1-en-1-yl)phenoxy)-2-methylpropanoic acid]
2440 | CSc1ccc2cc(C(=O)/C=C/c3cc(C)c(OC(C)(C)C(=O)O)c(C)c3)[nH]c2c1 [Compound 88, (E)-2-(2,6-dimethyl-4-(3-(6-(methylthio)-1H-indol-2-yl)-3-oxoprop-1-en-1-yl)phenoxy)-2 methylpropanoic acid]
121 | Cc1cc(/C=C/C(=O)c2oc3cc(SC(C)C)ccc3c2C)cc(C)c1OC(C)(C)C(=O)O [Compound 77, (E)-2-(4-(3-(6-(isopropylthio)-3-methylbenzofuran-2-yl)-3-oxoprop-1-en-1-yl)-2,6-dimethylphenoxy)-2-methylpropanoic acid]
477 | CSc1ccc2cc(C(=O)/C=C/c3cc(C(C)C)c(OC(C)(C)C(=O)O)c(C(C)C)c3)oc2c1 [Compound 101, (E)-2-(2,6-diisopropyl-4-(3-(6-(methylthio)benzofuran-2-yl)-3-oxoprop-1-en-1-yl)phenoxy)-2-methylpropanoic acid]
58.9 | Cc1cc(/C=C/C(=O)c2oc3cc(SCC(C)C)ccc3c2C)cc(C)c1OC(C)(C)C(=O)O [Compound 76, (E)-2-(4-(3-(6-(isobutylthio)-3-methylbenzofuran-2-yl)-3-oxoprop-1-en-1-yl)-2,6-dimethylphenoxy)-2-methylpropanoic acid]
191 | COc1cc(/C=C/C(=O)c2oc3cc(SC)ccc3c2C)cc(OC)c1OC(C)(C)C(=O)O [Compound 102, (E)-2-(2,6-dimethoxy-4-(3-(3-methyl-6-(methylthio)benzofuran-2-yl)-3-oxoprop-1-en-1-yl)phenoxy)-2-methylpropanoic acid]

What follows are compounds tested against T2, PPARγ (Homo sapiens, UniProt P37231) (assay: Hela cell/luciferase reporter gene method, PPARγ agonist activity). Conditions: Hela cells, pPPRE3-TK-Luciferase reporter, 24 hrs incubation; read-out: agonistic activity on PPARγ (EC50).
T2 construct: expressed in transfected cells; host or cells: Hela cells
T2 sequence (P37231 1-505): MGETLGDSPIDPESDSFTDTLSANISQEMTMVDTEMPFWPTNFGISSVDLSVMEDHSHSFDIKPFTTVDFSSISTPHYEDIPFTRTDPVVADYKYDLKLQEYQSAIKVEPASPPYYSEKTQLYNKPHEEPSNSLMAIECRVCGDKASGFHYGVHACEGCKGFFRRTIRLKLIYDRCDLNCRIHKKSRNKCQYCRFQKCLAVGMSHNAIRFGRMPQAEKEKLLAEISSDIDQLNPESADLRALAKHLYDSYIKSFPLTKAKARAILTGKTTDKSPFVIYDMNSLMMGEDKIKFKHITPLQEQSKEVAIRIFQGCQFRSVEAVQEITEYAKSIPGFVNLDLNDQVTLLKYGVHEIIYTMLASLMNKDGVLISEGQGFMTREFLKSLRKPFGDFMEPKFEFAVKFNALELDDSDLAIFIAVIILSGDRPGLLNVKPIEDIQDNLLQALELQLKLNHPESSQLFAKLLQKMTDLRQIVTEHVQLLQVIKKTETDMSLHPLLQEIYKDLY
Format: cell-based
Method: as §1, §2, §3

EC50 [nM] | Compound
279 | CSc1ccc(C(=O)/C=C/c2ccc(OC(C)(C)C(=O)O)cc2)c2occc12 [Compound 12, (E)-2-methyl-2-(4-(3-(4-(methylthio)benzofuran-7-yl)-3-oxoprop-1-en-1-yl)phenoxy)propanoic acid]
